Measured values: ChEMBL document CHEMBL3885881, “DrugMatrix”

Organism: Rattus norvegicus
Experiment: DrugMatrix - Regimen: Daily Repeat
Assay type: toxicity, organism-based, Sprague-Dawley
Set-up: regimen Daily Repeat, gender Male, age 6-8 weeks
Conditions: in vivo, po, route oral GAVAGE, […]; for POTASSIUM / SODIUM / TOTAL BILIRUBIN / TOTAL PROTEIN / URIC ACID / ALANINE AMINOTRANSFERASE / ALBUMIN / ALKALINE PHOSPHATASE / ASPARTATE AMINOTRANSFERASE / BLOOD UREA NITROGEN / CARBON DIOXIDE / CHLORIDE / CHOLESTEROL / CREATINE PHOSPHOKINASE / CREATININE / GLUCOSE / LIPASE / PHOSPHORUS / LACTATE DEHYDROGENASE: tissue Plasma; for ABSOLUTE BASOPHIL / ABSOLUTE EOSINOPHIL / ABSOLUTE LYMPHOCYTE / ABSOLUTE MONOCYTE / BASOPHIL / EOSINOPHIL / ERYTHROCYTE COUNT / HEMATOCRIT / HEMOGLOBIN / LEUKOCYTE COUNT / LYMPHOCYTE / MEAN CORPUSCULAR HEMOGLOBIN / MEAN CORPUSCULAR HEMOGLOBIN CONCENTRATION / MEAN CORPUSCULAR VOLUME / MONOCYTE / NEUTROPHIL / PLATELET COUNT: tissue Blood
[1] = 0 mg/kg, 72 h, dose level Control, time 3 day
[2] = 0 mg/kg, 120 h, dose level Control, time 5 day
[3] = 0 mg/kg, dose level Control, time 14 day
[4] = 15 mg/kg, 72 h, dose level High, time 3 day
[5] = 15 mg/kg, 120 h, dose level High, time 5 day
[6] = 15 mg/kg, dose level High, time 14 day

SMILES: CC(CCc1ccc(O)cc1)NCCc1ccc(O)c(O)c1 (configuration not stated) [DOBUTAMINE]
- POTASSIUM [1]: 6.13 MEQ/L
- SODIUM [1]: 145 MEQ/L
- TOTAL BILIRUBIN [1]: 0.43 mg/dL
- TOTAL PROTEIN [1]: 6.7 G/DL
- URIC ACID [1]: 0.83 mg/dL
- ABSOLUTE BASOPHIL [2]: 33.3 cells/µL
- ABSOLUTE EOSINOPHIL [2]: 56.7 cells/µL
- ABSOLUTE LYMPHOCYTE [2]: 9220 cells/µL
- ABSOLUTE MONOCYTE [2]: 230 cells/µL
- BASOPHIL [2]: 0.3%
- EOSINOPHIL [2]: 0.5%
- ERYTHROCYTE COUNT [2]: 6.62 x10E6/uL
- HEMATOCRIT [2]: 46.43%
- HEMOGLOBIN [2]: 14.3 G/DL
- LEUKOCYTE COUNT [2]: 10.96 x10E3/uL
- LYMPHOCYTE [2]: 83.83%
- MEAN CORPUSCULAR HEMOGLOBIN [2]: 21.57 pg
- MEAN CORPUSCULAR HEMOGLOBIN CONCENTRATION [2]: 30.77 G/DL
- MEAN CORPUSCULAR VOLUME [2]: 70.13 fL
- MONOCYTE [2]: 2.1%
- NEUTROPHIL [2]: 12.53%
- PLATELET COUNT [2]: 1056.67 x10E3/uL
- ALANINE AMINOTRANSFERASE [2]: 41.33 u/L
- ALBUMIN [2]: 4.07 G/DL
- ALKALINE PHOSPHATASE [2]: 603.33 u/L
- ASPARTATE AMINOTRANSFERASE [2]: 80 u/L
- BLOOD UREA NITROGEN [2]: 14.67 mg/dL
- CARBON DIOXIDE [2]: 43 mmol/L
- CHLORIDE [2]: 104 MEQ/L
- CHOLESTEROL [2]: 88.33 mg/dL
- CREATINE PHOSPHOKINASE [2]: 391.67 u/L
- CREATININE [2]: 0.47 mg/dL
- GLUCOSE [2]: 156 mg/dL
- LIPASE [2]: 10.67 u/L
- PHOSPHORUS [2]: 9.03 mg/dL
- POTASSIUM [2]: 6.1 MEQ/L
- SODIUM [2]: 145.67 MEQ/L
- TOTAL BILIRUBIN [2]: 0.37 mg/dL
- TOTAL PROTEIN [2]: 6.53 G/DL
- URIC ACID [2]: 0.5 mg/dL
- ABSOLUTE BASOPHIL [3]: 73.3 cells/µL
- ABSOLUTE EOSINOPHIL [3]: 60 cells/µL
- ABSOLUTE LYMPHOCYTE [3]: 12200 cells/µL
- ABSOLUTE MONOCYTE [3]: 250 cells/µL
- BASOPHIL [3]: 0.5%
- EOSINOPHIL [3]: 0.37%
- ERYTHROCYTE COUNT [3]: 7.33 x10E6/uL
- HEMATOCRIT [3]: 44.3%
- HEMOGLOBIN [3]: 14.77 G/DL
- LEUKOCYTE COUNT [3]: 14.86 x10E3/uL
- LYMPHOCYTE [3]: 81.87%
- MEAN CORPUSCULAR HEMOGLOBIN [3]: 20.2 pg
- MEAN CORPUSCULAR HEMOGLOBIN CONCENTRATION [3]: 33.33 G/DL
- MEAN CORPUSCULAR VOLUME [3]: 60.57 fL
- MONOCYTE [3]: 1.63%
- NEUTROPHIL [3]: 14.93%
- PLATELET COUNT [3]: 1101.67 x10E3/uL
- ALANINE AMINOTRANSFERASE [3]: 31.67 u/L
- ALBUMIN [3]: 3.83 G/DL
- ALKALINE PHOSPHATASE [3]: 430.67 u/L
- ASPARTATE AMINOTRANSFERASE [3]: 87 u/L
- BLOOD UREA NITROGEN [3]: 14.33 mg/dL
- CARBON DIOXIDE [3]: 39 mmol/L
- CHLORIDE [3]: 104 MEQ/L
- CHOLESTEROL [3]: 66 mg/dL
- CREATINE PHOSPHOKINASE [3]: 441.67 u/L
- CREATININE [3]: 0.7 mg/dL
- GLUCOSE [3]: 125.67 mg/dL
- LACTATE DEHYDROGENASE [3]: 397.67 u/L
- LIPASE [3]: 12.33 u/L
- PHOSPHORUS [3]: 9.87 mg/dL
- POTASSIUM [3]: 5.93 MEQ/L
- SODIUM [3]: 145 MEQ/L
- TOTAL BILIRUBIN [3]: 0.37 mg/dL
- TOTAL PROTEIN [3]: 6.27 G/DL
- URIC ACID [3]: 0.67 mg/dL
- ABSOLUTE BASOPHIL [4]: 23.3 cells/µL
- ABSOLUTE EOSINOPHIL [4]: 50 cells/µL
- ABSOLUTE LYMPHOCYTE [4]: 6060 cells/µL
- ABSOLUTE MONOCYTE [4]: 170 cells/µL
- BASOPHIL [4]: 0.3%
- EOSINOPHIL [4]: 0.67%
- ERYTHROCYTE COUNT [4]: 6.67 x10E6/uL
- HEMATOCRIT [4]: 46.03%
- HEMOGLOBIN [4]: 14.2 G/DL
- LEUKOCYTE COUNT [4]: 8.35 x10E3/uL
- LYMPHOCYTE [4]: 72.8%
- MEAN CORPUSCULAR HEMOGLOBIN [4]: 21.33 pg
- MEAN CORPUSCULAR HEMOGLOBIN CONCENTRATION [4]: 30.87 G/DL
- MEAN CORPUSCULAR VOLUME [4]: 69.1 fL
- MONOCYTE [4]: 2.07%
- NEUTROPHIL [4]: 23.9%
- PLATELET COUNT [4]: 1110.33 x10E3/uL
- ALANINE AMINOTRANSFERASE [4]: 48.33 u/L
- ALBUMIN [4]: 4.07 G/DL
- ALKALINE PHOSPHATASE [4]: 498.67 u/L
- ASPARTATE AMINOTRANSFERASE [4]: 85.67 u/L
- BLOOD UREA NITROGEN [4]: 18.67 mg/dL
- CARBON DIOXIDE [4]: 41.67 mmol/L
- CHLORIDE [4]: 105 MEQ/L
- CHOLESTEROL [4]: 71.67 mg/dL
- CREATINE PHOSPHOKINASE [4]: 568.67 u/L
- CREATININE [4]: 0.6 mg/dL
- GLUCOSE [4]: 196 mg/dL
- LIPASE [4]: 199.67 u/L
- PHOSPHORUS [4]: 9.2 mg/dL
- POTASSIUM [4]: 5.77 MEQ/L
- SODIUM [4]: 147.67 MEQ/L
- TOTAL BILIRUBIN [4]: 0.43 mg/dL
- TOTAL PROTEIN [4]: 6.67 G/DL
- URIC ACID [4]: 0.6 mg/dL
- ABSOLUTE BASOPHIL [5]: 26.7 cells/µL
- ABSOLUTE EOSINOPHIL [5]: 26.7 cells/µL
- ABSOLUTE LYMPHOCYTE [5]: 7530 cells/µL
- ABSOLUTE MONOCYTE [5]: 170 cells/µL
- BASOPHIL [5]: 0.27%
- EOSINOPHIL [5]: 0.33%
- ERYTHROCYTE COUNT [5]: 6.8 x10E6/uL
- HEMATOCRIT [5]: 46.17%
- HEMOGLOBIN [5]: 14.17 G/DL
- LEUKOCYTE COUNT [5]: 9.18 x10E3/uL
- LYMPHOCYTE [5]: 82.07%
- MEAN CORPUSCULAR HEMOGLOBIN [5]: 20.87 pg
- MEAN CORPUSCULAR HEMOGLOBIN CONCENTRATION [5]: 30.73 G/DL
- MEAN CORPUSCULAR VOLUME [5]: 67.93 fL
- MONOCYTE [5]: 1.87%
- NEUTROPHIL [5]: 15%
- PLATELET COUNT [5]: 1523.67 x10E3/uL
- ALANINE AMINOTRANSFERASE [5]: 40.67 u/L
- ALBUMIN [5]: 4.2 G/DL
- ALKALINE PHOSPHATASE [5]: 613.33 u/L
- ASPARTATE AMINOTRANSFERASE [5]: 74.67 u/L
- BLOOD UREA NITROGEN [5]: 17 mg/dL
- CARBON DIOXIDE [5]: 40.67 mmol/L
- CHLORIDE [5]: 107.33 MEQ/L
- CHOLESTEROL [5]: 84.33 mg/dL
- CREATINE PHOSPHOKINASE [5]: 393 u/L
- CREATININE [5]: 0.53 mg/dL
- GLUCOSE [5]: 174.33 mg/dL
- LIPASE [5]: 199.33 u/L
- PHOSPHORUS [5]: 10.1 mg/dL
- POTASSIUM [5]: 6.07 MEQ/L
- SODIUM [5]: 149.33 MEQ/L
- TOTAL BILIRUBIN [5]: 0.4 mg/dL
- TOTAL PROTEIN [5]: 6.73 G/DL
- URIC ACID [5]: 0.87 mg/dL
- ABSOLUTE BASOPHIL [6]: 52 cells/µL
- ABSOLUTE EOSINOPHIL [6]: 40 cells/µL
- ABSOLUTE LYMPHOCYTE [6]: 9620 cells/µL
- ABSOLUTE MONOCYTE [6]: 200 cells/µL
- BASOPHIL [6]: 0.42%
- EOSINOPHIL [6]: 0.34%
- ERYTHROCYTE COUNT [6]: 7.05 x10E6/uL
- HEMATOCRIT [6]: 43.9%
- HEMOGLOBIN [6]: 14.6 G/DL
- LEUKOCYTE COUNT [6]: 12.04 x10E3/uL
- LYMPHOCYTE [6]: 79.76%
- MEAN CORPUSCULAR HEMOGLOBIN [6]: 20.7 pg
- MEAN CORPUSCULAR HEMOGLOBIN CONCENTRATION [6]: 33.26 G/DL
- MEAN CORPUSCULAR VOLUME [6]: 62.28 fL
- MONOCYTE [6]: 1.68%
- NEUTROPHIL [6]: 17.28%
- PLATELET COUNT [6]: 1124.2 x10E3/uL
- ALANINE AMINOTRANSFERASE [6]: 35 u/L
- ALBUMIN [6]: 4.04 G/DL
- ALKALINE PHOSPHATASE [6]: 405.4 u/L
- ASPARTATE AMINOTRANSFERASE [6]: 77.8 u/L
- BLOOD UREA NITROGEN [6]: 14 mg/dL
- CARBON DIOXIDE [6]: 43.2 mmol/L
- CHLORIDE [6]: 103 MEQ/L
- CHOLESTEROL [6]: 69.8 mg/dL
- CREATINE PHOSPHOKINASE [6]: 325.8 u/L
- CREATININE [6]: 0.8 mg/dL
- GLUCOSE [6]: 144.4 mg/dL
- LACTATE DEHYDROGENASE [6]: 182.2 u/L
- LIPASE [6]: 12.2 u/L
- PHOSPHORUS [6]: 10.48 mg/dL
- POTASSIUM [6]: 6.04 MEQ/L
- SODIUM [6]: 147 MEQ/L
- TOTAL BILIRUBIN [6]: 0.36 mg/dL
- TOTAL PROTEIN [6]: 6.56 G/DL
- URIC ACID [6]: 0.66 mg/dL
